Data taken from PubChem BioAssay AID179 (DTP/NCI, 2004).
“And” between values parts separate entries of the source, which are not always exact repeats. Equal entries are not always repeated. The source made the active and inactive calls.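 Rule for the calls: active = compounds giving half or more protection of infected cells from virus-caused growth loss, again on retest; inactive = the rest.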

Tested on: CEM cells HIV-1 protection, formazan growth assay
Test: NCI AIDS Antiviral Assay
Conditions: for IC50: measured here: growth of uninfected CEM cells
In short: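 CEM (human) cells, HIV-1 infected vs uninfected, 5-point dosing, formazan growth read-out. Retest threshold 50% protection.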

Row | SMILES | EC50 | IC50 | outcome
1 | CC(=O)Nc1ccc2cc3[nH]c4cc(NC(C)=O)ccc4c3nc2c1 | > 200 µM | 17.8 µM | 
2 | CC(=O)OCc1ccc(-c2nc(C#N)c(N)o2)o1 | > 200 µM | > 200 µM | 
3 | NC(=O)CSc1nc2ccccc2c(=O)n1N | > 200 µM | > 200 µM | 
4 | O=C(/C=C/C(Cl)(Cl)Cl)Nc1ccc(Cl)cc1 | > 200 µM | 10.2 µM | 
5 | CC(=O)c1sc2c(c1OC(=O)c1ccco1)c(=O)n(-c1ccccc1)c(=S)n2-c1ccccc1 | > 200 µM | 9.77 µM | 
6 | CCc1nc(N)nc(C(=O)NCCNC(=O)c2nc(N)nc(CC)c2C)c1C | > 67.6 µM | > 67.6 µM | 
7 | CCOP(=O)(c1ccccc1)C([CH2][Sn]([CH3])([CH3])[Cl])P(=O)(OC(C)C)OC(C)C (stereo not given) | > 200 µM | 4.47 µM | 
8 | Cc1ccc(-n2nnc3c(NNc4ccccc4)n[nH]c(=O)c32)cc1 | > 200 µM | 25.7 µM | 
9 | CC1(C)C/C=C\CCC(O)C(O)CCC(C)(C)C1=O (stereo not given) | > 200 µM | > 200 µM | 
10 | COc1cccc(NC(=O)CC(=O)N2N=C(C)C(N=Nc3ccc(S(=O)(=O)c4ccc(N=NC5C(=O)N(C(=O)CC(=O)Nc6cccc(OC)c6)N=C5C)cc4)cc3)C2=O)c1 (stereo not given) | 178 µM | > 200 µM | 
11 | Cc1ccc(-c2n[nH]c(=O)[nH]2)cc1 | > 200 µM | > 200 µM | 
12 | N.N.N.N.O=[N+]([O-])[O-].[Co+3].[N-]=[N+]=[N-].[N-]=[N+]=[N-] |  |  | inactive
13 | COc1ccc(-c2c3ccccc3c(-c3ccc(OCCBr)cc3)c3ccccc23)cc1 | > 100 µM | > 100 µM | 
14 | C(/Cc1ccc2c(c1)OCO2)=N\NC1=NCCCCN1 | > 200 µM | 105 µM | 
15 | CCCCC(C(=O)C(=O)Nc1ccc(C)cc1C)C(=O)C(C)C (stereo not given) | > 794 µM | > 794 µM | 
16 | CCOC(=O)/C(C#N)=C(O)/C(=C\c1ccc(Br)cc1)NC(=O)c1ccccc1 | > 562 µM | > 562 µM | 
17 | CC(C)(C)c1ccc2c(c1)CNCCNCCNCc1cc(C(C)(C)C)ccc1OCC1(CO2)COc2ccc(C(C)(C)C)cc2CNCCNCCNCc2cc(C(C)(C)C)ccc2OC1 | > 1.51 µM | 0.813 µM | 
18 | CN1CSCSC1 |  |  | inactive
19 | C[C@H](O)C(=O)SC[C@H](NC(=O)CC[C@@H](N)C(=O)O)C(=O)NCC(=O)O | > 200 µM | > 200 µM | 
20 | COC(=O)[C@@H]1Cc2c3n(c4ccccc24)C(=O)CCC3N1C (stereo not given in full) | > 417 µM | 295 µM | 

Row | SMILES | EC50 | IC50 | outcome
21 | c1scc2c1COCCOCCOCCOCCOC2 | > 832 µM | > 832 µM | 
22 | O=C(NC(CCCCN1C(=O)c2ccccc2C1=O)P(=O)(Oc1ccccc1)Oc1ccccc1)OCc1ccccc1 (stereo not given) | > 200 µM | 95.5 µM | 
23 | CCNC(=S)NNC(=O)c1ccccc1Nc1ccccc1C(=O)NNC(=S)NCC |  | 112 µM | inactive
24 | CCCCC1(c2sccc2C(O)(C(F)F)C(F)(F)F)NC(C)(C)CO1 (stereo not given) | > 200 µM | 126 µM | 
25 | c1ccc([As](c2ccccc2)c2cccc[c]2[Bi]([c]2ccccc2)[c]2ccccc2)cc1 | > 10.7 µM | > 10.7 µM | 
26 | O=c1[nH]c(=O)n(C2OC(CO)C(O)C2O)cc1OCCc1ccccc1 (stereo not given) | > 200 µM | > 200 µM | 
27 | Cc1ccc(NC(=O)/C(CC(=O)c2c[n+](=O)c3ccccc3n2O)=N\NC(=O)C[n+]2ccccc2)cc1 | > 43.7 µM | > 43.7 µM | 
28 | COC(=O)C1CC2C=CC=CC(=O)C2(C)C1 (stereo not given) | > 251 µM | 33.1 µM | 
29 | [O-][n+]1cc(SCc2ccccc2)ncc1SCc1ccccc1 | > 200 µM | > 200 µM | 
30 | COc1cc(C(C[N+](=O)[O-])SC(C)=O)ccc1OCc1ccccc1 (stereo not given) | > 200 µM | 1.95 µM | 
31 | O=C1C(Cl)N(c2cccc(Cl)c2)C1c1c[nH]c2ccccc12 (stereo not given) | > 282 µM | 102 µM | 
32 | C[N+]12C=CC=C1C(N1CCCC1)c1scc(-c3ccccc3)c12 (stereo not given) | > 200 µM | 17.8 µM | 
33 | CC(=O)Oc1cc2c(cc1OC(C)=O)C1(C)CCC2(C)c2cc(OC(C)=O)c(OC(C)=O)cc21 |  |  | inactive
34 | CC(c1ccc2c(c1)CCC1C2CC2OC23CC=CC(=O)[C@]13C)C1C[C@]2(C)O[C@]2(C)[C@H](O)O1 (stereo not given in full) | > 200 µM | 45.7 µM | 
35 | Cn1c(=O)c2c(nc3n(CC(O)CCl)c(=O)ccn23)n(C)c1=O (stereo not given) | > 200 µM | 22.4 µM | 
36 | COC(=O)C=Cc1ccc2nncnc2c1 (mixture of isomers) | > 200 µM | 44.7 µM | 
37 | C=CCc1cc(CN2CCN(C)CC2)c(O)c(OC)c1 | > 200 µM | > 200 µM | 
38 | c1ccc(SSc2ccccc2)cc1 | > 200 µM | 5.62 µM | 
39 | CC(=O)OCC(OC(C)=O)C(OC(C)=O)C(OC(C)=O)C(C=NN(C(C)=O)S(=O)(=O)c1ccc(/C=C2\NC(=O)N(C)C2=O)cc1)OC(C)=O (stereo not given) | > 200 µM | 7.24 µM and 11.2 µM | 
